{"source": "patent US12559750B2", "about": "“Methods and compositions for treatment of polycystic kidney disease” (Regulus Therapeutics Inc., priority 2021, dated 2026)", "key": {"C57Bl/6J male mice": {"system": "C57Bl/6J male mice", "experiment": "ICV maximum tolerated dose study, Study 1", "assay_type": "in vivo, mouse", "settings": "7-day", "experimental": "Compounds (RG-NG-1017, RGLS4326, RG-NG-1001) were evaluated in a pilot maximum tolerated dose (MTD) study (discussed below). RG-NG-1017, RGLS4326 and RG-NG-1001 were initially evaluated at 4 dose-levels each. RG-NG-1017 was included for evaluation as a non-AMPA-R binding compound, as compared to RGLS4326 and RG-NG-1001, which bind AMPA-R. C57Bl/6J male mice (Jackson Laboratories), age 6-7 weeks, were used in this study. Mice were assigned randomly to treatment groups, and the study was blinded. Animals were allowed to acclimate for no less than 5 days and housed on a 12 hr light/dark cycle (lights on 7:00 AM). No more than 4 mice were house in each cage in a ventilated cage rack system. The diet consisted of standard rodent chow and water ad libitum.\nThe following parameters were used for this study: • 1. Route(s) of administration: intracerebroventricular (ICV) dosing of RG-NG-1017, RG-NG-1001, RGLS4326 • 2. Dose Volume(s): 4 μL • 3. Formulation(s): vehicle, Ca^2+ and Mg^2+ free dPBS • 4. Dose Frequency: Once • 5. Study duration: 8 Days • 6. Number of Groups: 3 • 7. Number of animals per group: (2-4 each group) • 8. Total number of animals: […]\nFor the ICV administration, mice were anesthetized and positioned for injections. The skin over the skull was incised, and a small hole was made in the skull above the target using a microdrill. The stereotactic coordinates were anteroposterior (AP), −0.4 mm; mediolateral (ML), +/−1.0-1.5 mm; dorsoventral (DV), −3.0 mm from the bregma for injection into both the right and left lateral cerebral ventricles (Hironaka et al, 2015). Animals were injected unilaterally with 4 μl into the right lateral cerebral ventricle. Compounds were injected over 1-2 min, and the needle was left in place for 0.5-1 min prior to withdrawal. The incision was closed with sutures, wound clips, or VetBond.\nFollowing ICV treatment (Day 0), animals were monitored for 7 days in which daily health checks, body weight, and mortality was recorded. On Day 7, brain and kidney were collected and fixed (10% formalin) and stored pending histology."}, "Swiss:Rjorl male mice": {"system": "Swiss:Rjorl male mice", "experiment": "ICV maximum tolerated dose study for RGLS4326, Study 2", "assay_type": "in vivo, mouse", "experimental": "A second MTD study for RGL4326 by ICV was conducted to assess dose selection for evaluating the compound in disease models (Table 11). In this study, a different mouse strain was evaluated (Swiss:Rjorl male mice, age 5 weeks, sourced from Janvier). Mice were placed under isoflurane anaesthesia (5% for induction and 2% for maintenance, under 100% O2) and given 5 mg/kg s.c. carprofen (Rimadyl®). They were then placed in a stereotaxic frame. A midline sagittal incision was made in the scalp and a hole was drilled in the skull over the left lateral ventricle. A stainless-steel cannula (external diameter 0.51 mm) was placed stereotaxically into the left lateral ventricle at the following coordinates: +0.5 posterior to Bregma, L±0.7 mm, V=−2.7 mm. After a 2-minute delay to allow the brain tissue to slide over the cannula, 4 μL of a solution containing 0.625 mg/mL of RG4326 was slowly infused over 2 minutes. After infusion, the cannula was left in place for a further 5 minutes to prevent backflow of the solution along the cannula track. Mice were given 5 mg/kg s.c. carprofen (Rimadyl®) at 24 and 48 hours, after surgery. Mice were monitored during 3-7 days after surgery (starting 24 h after ICV administration) and their body weight was taken daily to check their health status. For mice monitored over 7 days, body weight was taken on Day 1 and on Day 7 after surgery to check their health status.\nIn Study 1, 6 mice were injected with 4 μL of a solution at 0.625 mg/mL (2.5 μg total per ICV; Table 10). At the end of anesthesia, the mice remained lying on one side. They were quiet with some periods of scratching during the first hours after surgery. […] In Study 2, four mice were injected with 4 different doses of RGLS4326 (0.75, 1.0, 1.25 and 1.875 mg/mL, volume of 4 μL). One mouse that received the highest dose (1.875 mg/mL, i.e., 7.5 μg/mouse) was found dead around 24 hours after ICV injection. All other mice were in good health, until the end of the pilot study (7 days after administration)."}, "AMPA glutamate receptor": {"biological_target": "AMPA glutamate receptor", "experiment": "Off-target panel, ligand binding (RGLS4326)", "experimental": "To identify potential candidates for off-target pharmacology, a panel of 174 targets including G-protein coupled receptors, transporters, ion channels, nuclear receptors, and cytokine receptors was evaluated in vitro for possible interactions with RGLS4326. […] AMPA receptors are ion channels on excitatory synapses in the CNS that mediate fast excitatory neurotransmission and, therefore, are key components of all neuronal networks. Such an interaction with the AMPA receptor could explain the CNS-mediated findings observed at high doses of RGLS4326 in nonclinical toxicology models."}}}
{"sequence": "ASGSCMAFCFUFUMUSGS [RGLS4326, reference compound]", "values": [{"measurement": "Mortality/total number of mice", "setting": "C57Bl/6J male mice; single ICV 2.5 μg", "value": "0/3"}, {"measurement": "Mortality/total number of mice", "setting": "C57Bl/6J male mice; single ICV 5 μg", "value": "2/4"}, {"measurement": "Mortality/total number of mice", "setting": "C57Bl/6J male mice; single ICV 10 μg", "value": "3/4"}, {"measurement": "Mortality/total number of mice", "setting": "C57Bl/6J male mice; single ICV 25 μg", "value": "3/3"}, {"measurement": "Mortality/total number of mice", "setting": "C57Bl/6J male mice; single ICV 50 μg", "value": "3/3"}, {"measurement": "Mortality/total number of mice", "setting": "C57Bl/6J male mice; single ICV 100 μg", "value": "2/2"}, {"measurement": "Mortality/total number of mice", "setting": "C57Bl/6J male mice; single ICV 300 μg", "value": "2/2"}, {"measurement": "Mortality/total number of mice", "setting": "C57Bl/6J male mice; single ICV 600 μg", "value": "2/2"}, {"measurement": "toxic effects at 24, 48 or 72 hours", "setting": "Swiss:Rjorl male mice; ICV 4 μL of 0.625 mg/mL (2.5 μg total), 6 mice", "value": "No toxic effects were observed"}, {"measurement": "Dead/Total Mice, Study 2", "setting": "Swiss:Rjorl male mice; single ICV 2.5 μg", "value": "0/6"}, {"measurement": "Dead/Total Mice, Study 2", "setting": "Swiss:Rjorl male mice; single ICV 3 μg, 7-day", "value": "0/4"}, {"measurement": "Dead/Total Mice, Study 2", "setting": "Swiss:Rjorl male mice; single ICV 4 μg, 7-day", "value": "0/4"}, {"measurement": "Dead/Total Mice, Study 2", "setting": "Swiss:Rjorl male mice; single ICV 5 μg, 7-day", "value": "0/4"}, {"measurement": "Dead/Total Mice, Study 2", "setting": "Swiss:Rjorl male mice; single ICV 7.5 μg, 7-day", "value": "1/4"}, {"measurement": "MTD", "setting": "Swiss:Rjorl male mice; single ICV, Swiss:Rjorl mouse strain, predicted from Study 2", "value": "~4", "unit": "µg"}, {"measurement": "50% inhibitory concentration (IC50) based on ligand binding", "setting": "AMPA glutamate receptor", "value": 14.2, "unit": "µg/mL"}, {"measurement": "IC50", "setting": "AMPA glutamate receptor; read-out: 50% inhibitory concentration (IC50) based on ligand binding", "value": 4.6, "unit": "µM"}]}
